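All cell lines were grown in 96-well plates and treated with compound for 48 hours. Abbreviation: GI50, concentration required for 50% inhibition of growth.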 Calls of active or inactive are those of the source. Rule as the data show it: active = GI50 up to about 1.1 µM and inactive = higher.
Key:
Test in all cases: NCI anticancer screen, dose series, 48 h
[1] = test system: K562
[2] = test system: IGROV-1
[3] = test system: OVCAR-3
[4] = test system: MOLT-4
[5] = test system: SNB-75
[6] = test system: HOP-92
[7] = test system: HL-60
[8] = test system: MCF7
[9] = test system: LOX IMVI
[10] = test system: SW-620
[11] = test system: MDA-MB-231
[12] = test system: TK-10
[13] = test system: UACC-257
[14] = test system: NCI/ADR-RES
[15] = test system: KM12
[16] = test system: HCC 2998
[17] = test system: PC-3
[18] = test system: RPMI-8226

SMILES	GI50 [1]	GI50 [2]	GI50 [3]	GI50 [4]	GI50 [5]	GI50 [6]	GI50 [7]	GI50 [8]	GI50 [9]	GI50 [10]	GI50 [11]	GI50 [12]	GI50 [13]	GI50 [14]	GI50 [15]	GI50 [16]	GI50 [17]	GI50 [18]
COc1cc2oc(-c3ccc4c(c3)OCO4)c(OC)c(=O)c2c(OC)c1OC	> 100 µM (inactive)	67.9 µM (inactive)	> 100 µM (inactive)	> 100 µM (inactive)	27.2 µM (inactive)	1.35 µM (inactive)	83.2 µM (inactive)	> 100 µM (inactive)	> 100 µM (inactive)	> 100 µM (inactive)	> 100 µM (inactive)	32.8 µM (inactive)	> 100 µM (inactive)	> 100 µM (inactive)	> 100 µM (inactive)	> 100 µM (inactive)	> 100 µM (inactive)	–
Cc1cc(S(=O)(=O)Nc2nc(N)n(-c3cnc4ccccc4n3)n2)c(S)cc1Cl	> 100 µM (inactive)	> 100 µM (inactive)	> 100 µM (inactive)	–	22.7 µM (inactive)	16.6 µM (inactive)	> 100 µM (inactive)	> 100 µM (inactive)	> 100 µM (inactive)	> 100 µM (inactive)	> 100 µM (inactive)	> 100 µM (inactive)	> 100 µM (inactive)	> 100 µM (inactive)	60.4 µM (inactive)	> 100 µM (inactive)	> 100 µM (inactive)	–
CC(Cc1cccc2c1Nc1ccccc1S2)N(C)CCO (stereo unspecified)	> 100 µM (inactive)	> 100 µM (inactive)	> 100 µM (inactive)	> 100 µM (inactive)	–	> 100 µM (inactive)	> 100 µM (inactive)	> 100 µM (inactive)	> 100 µM (inactive)	> 100 µM (inactive)	> 100 µM (inactive)	> 100 µM (inactive)	> 100 µM (inactive)	> 100 µM (inactive)	> 100 µM (inactive)	> 100 µM (inactive)	> 100 µM (inactive)	–
C[C@]12CC[C@H](O)CC1=CC[C@@H]1C2CC[C@]2(C)Nc3c(cnn3-c3ccc(F)cc3)CC12 (stereo partly specified)	2.25 µM (inactive)	> 100 µM (inactive)	48.5 µM (inactive)	3.48 µM (inactive)	2.71 µM (inactive)	21.4 µM (inactive)	4.12 µM (inactive)	> 52.2 µM (inactive)	3.2 µM (inactive)	–	> 41.8 µM (inactive)	78.2 µM (inactive)	60.8 µM (inactive)	21.5 µM (inactive)	29.4 µM (inactive)	> 68.2 µM (inactive)	14.1 µM (inactive)	–
CCC(C)[C@H](NC(=O)[C@H](Cc1ccccc1)NC(=O)N(CC)c1ccccc1)C(=O)N[C@@H](CC(C)C)C(=O)OC (stereo partly specified)	–	20.4 µM (inactive)	24.8 µM (inactive)	10.7 µM (inactive)	70.5 µM (inactive)	40.7 µM (inactive)	–	25.7 µM (inactive)	30.9 µM (inactive)	31.6 µM (inactive)	27.7 µM (inactive)	37.9 µM (inactive)	24.9 µM (inactive)	> 100 µM (inactive)	22 µM (inactive)	42.2 µM (inactive)	35.3 µM (inactive)	8.93 µM (inactive)
Cc1c2cccc-2c(N(C)C)cc2c1[nH]c1ccccc12	–	1.89 µM (inactive)	4.32 µM (inactive)	4.35 µM (inactive)	–	0.561 µM (active)	2.35 µM (inactive)	5.31 µM (inactive)	3.94 µM (inactive)	4.17 µM (inactive)	10.1 µM (inactive)	4.63 µM (inactive)	13 µM (inactive)	3.22 µM (inactive)	2.74 µM (inactive)	–	1.42 µM (inactive)	2.07 µM (inactive)
